In US20180133327A1, “Cell Penetrating Peptides and Complexes Comprising the Same” (Amal Therapeutics SA, priority 2015, published 2018):

Tested on: IFN-γ-producing OVA257-264-specific CD8 T cells
Test: Vaccination with ZEBRA CPP truncation constructs plus TLR agonist adjuvant, IFN-γ Elispot on spleen cells, CD8
Format: in vivo, mice
Method: (§1) Mice were vaccinated three times (wk0, wk2 and wk9) by s.c. injection (right flank) of 10 nmoles of OVACD8CD4 (the cargo without Zebra CPP truncation), Z13OVACD8CD4, Z14OVACD8CD4, Z15OVACD8CD4, Z18OVACD8CD4 and i.m. injection of 50 μg of Hiltonol (right hind leg). One week after the last vaccination, Elispot assay was performed on spleen cells for detecting IFN-y-producing OVA257-264-specific CD8 T cells (A) and OVA323-339-specific CD4 T cells (B). *, p<0.05; **, p<0.01.
as §1, with “Z15OVACD8CD4 or” for “Z15OVACD8CD4,”, “20” for “i.m. injection of 50”, “Pam3CSK4.” for “Hiltonol (right hind leg).”, “IFN-γ-producing” for “IFN-y-producing”
Mice were vaccinated three times (wk0, wk2 and wk9) by s.c. injection (right flank) of 10 nmoles of Z13OVACD8CD4, Z15OVACD8CD4 or Z18OVACD8CD4 and 20 μg of MPLA. One week after the last vaccination, Elispot assay was performed on spleen cells for detecting IFN-γ-producing OVA257-264-specific CD8 T cells (A) and OVA323-339-specific CD4 T cells (B). *, p<0.05; **, p<0.01.
To extend the previous findings to in vivo vaccination, Z13, Z14, Z15 and Z18 conjugated to antigenic cargo containing both CD8 and CD4 T cell epitopes from OVA (as described in Example 4 for Z13, Z15 and Z18) was synthesized. For Z14 the construct was as follows:
Firstly, those constructs were tested with Hiltonol adjuvant (a TLR3 agonist). […] The number of peptide-specific IFN-γ-producing cells was calculated by subtracting the number of IFN-γ-secreting cells cultured without peptide to that obtained with cells cultured with peptide. […]

Sequence: KRYKNRVASRKSRAKFKQLLQHYREVAAAKSSENDRLRLLLK [Z13]
- CD8 immune response, combined with MPLA (10 nmol ZxxOVACD8CD4 s.c. wk0, wk2, wk9 and 20 μg MPLA (TLR4 agonist)): most efficacious

Sequence: REVAAAKSSENDRLRLLLK [Z18]
- CD8 immune response, combined with Pam3CSK4 (10 nmol ZxxOVACD8CD4 s.c. wk0, wk2, wk9 and 20 μg Pam3CSK4 (TLR2 agonist)): highest CD8 and CD4 immune response

Sequence: KRYKNRVASRKSRAKFK (CPP Z15) [ZEBRA CPP truncation]
- CD8 T cell immune responses, for any adjuvant (10 nmol ZxxOVACD8CD4 s.c. wk0, wk2, wk9, Hiltonol, Pam3CSK4 or MPLA): low CD8 T cell immune responses
